{
  "source": "patent US12325710B2",
  "about": "“Substituted 1,2,3,4,5,6-hexahydroazepino[4,5-b]indoles for treating brain disorders” (priority 2019, dated 2025)",
  "key": {"[1]": {"test_system": "rat embryonic cortical neurons", "assay": "Dendritogenesis (Sholl analysis) in cultured cortical neurons", "format": "cell-based", "conditions": "1 h treatment followed by 71 h growth; compared to vehicle (VEH)", "experimental": "Embryonic rat cortical neurons were treated for a short period of time (1 h) followed by a suitable growth period (71 h) to measure the psychoplastogenic effects of the compounds described herein. […] Therefore, the effects of ibogalogs 8-17 on dendritic growth was assessed.\nDendritogenesis Experiments. For the dendritogenesis experiments conducted using cultured cortical neurons, timed pregnant Sprague Dawley rats were obtained from Charles River Laboratories (Wilmington, MA). Full culturing, staining, and analysis details were performed as previously described. (Dunlap, L. et al., 2019)"}, "[2]": {"target": "T1, hERG channels expressed in HEK293 cells (Homo sapiens, UniProt Q12809)", "T1 construct": "expressed in transfected cells", "T1 sequence (Q12809 whole entry)": "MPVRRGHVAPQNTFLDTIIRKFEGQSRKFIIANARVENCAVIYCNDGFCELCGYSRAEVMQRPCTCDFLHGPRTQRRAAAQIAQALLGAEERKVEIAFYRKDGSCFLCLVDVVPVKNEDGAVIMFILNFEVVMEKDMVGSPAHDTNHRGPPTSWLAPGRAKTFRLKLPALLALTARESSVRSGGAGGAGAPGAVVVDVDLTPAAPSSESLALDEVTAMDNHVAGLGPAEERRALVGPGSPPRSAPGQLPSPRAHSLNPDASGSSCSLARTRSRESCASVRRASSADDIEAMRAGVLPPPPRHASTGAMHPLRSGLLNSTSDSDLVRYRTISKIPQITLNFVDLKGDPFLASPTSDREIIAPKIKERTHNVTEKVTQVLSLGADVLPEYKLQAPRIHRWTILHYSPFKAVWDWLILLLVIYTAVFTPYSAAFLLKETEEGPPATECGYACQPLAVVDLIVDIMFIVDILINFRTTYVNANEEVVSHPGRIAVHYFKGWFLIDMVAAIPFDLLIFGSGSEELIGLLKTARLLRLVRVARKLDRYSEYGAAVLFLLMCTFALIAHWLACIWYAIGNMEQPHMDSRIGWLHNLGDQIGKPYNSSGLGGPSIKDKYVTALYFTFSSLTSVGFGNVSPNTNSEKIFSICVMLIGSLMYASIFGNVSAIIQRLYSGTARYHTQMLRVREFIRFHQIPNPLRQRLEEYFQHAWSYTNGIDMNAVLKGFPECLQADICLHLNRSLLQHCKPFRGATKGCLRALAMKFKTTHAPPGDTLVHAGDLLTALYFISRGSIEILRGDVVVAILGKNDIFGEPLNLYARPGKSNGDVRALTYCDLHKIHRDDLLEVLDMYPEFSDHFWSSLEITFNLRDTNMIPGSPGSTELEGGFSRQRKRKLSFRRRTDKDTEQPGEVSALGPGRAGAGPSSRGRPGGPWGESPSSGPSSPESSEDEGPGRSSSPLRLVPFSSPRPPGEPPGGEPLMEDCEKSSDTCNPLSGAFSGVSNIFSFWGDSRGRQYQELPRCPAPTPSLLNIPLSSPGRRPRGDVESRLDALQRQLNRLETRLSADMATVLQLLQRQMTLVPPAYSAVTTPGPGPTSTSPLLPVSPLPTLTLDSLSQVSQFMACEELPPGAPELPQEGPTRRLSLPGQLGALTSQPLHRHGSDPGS", "format": "cell-based", "conditions": "relative to ibogaine", "experimental": "hERG Inhibition Studies. All experiments were conducted manually using an EPC-10 amplifier (HEKA, Lambrecht/Pfalz, Germany) at room temperature in the whole-cell mode of the patch-clamp technique. HEK-293 cells stably expressing hKv11.1 (hERG) under G418 selection were a generous gift from Craig January (University of Wisconsin, Madison). Cells were cultured in DMEM containing 10% fetal bovine serum, 2 mM glutamine, 1 mM sodium pyruvate, 100 U/mL penicillin, 100 μg/mL streptomycin, and […]. Before experiments, cells were cultured to 60-80% confluency and lifted using TrypLE and plated onto poly-L-lysine-coated coverslips. Patch pipettes were pulled from soda lime glass (micro-hematocrit tubes) and had resistances of 2-4 MO. For the external solution, normal sodium Ringer was used (160 mM NaCl, 4.5 mM KCl, 2 mM CaCl2, 1 mM MgCl2, 10 mM HEPES, pH 7.4 and 290-310 mOsm). The internal solution used was potassium fluoride with ATP (160 mM KF, 2 mM MgCl2, 10 mM EGTA, 10 mM HEPES, 4 mM NaATP, pH=7.2 and 300-320 mOsm). A 2-step pulse (applied every 10 sec) from −80 mV first to 40 mV for 2 sec and then to −60 mV for 4 sec, was used to elicit hERG currents. The percent reduction of tail current amplitude by the drugs was determined and data are shown as mean+/−SD. For all experiments, solutions of the drugs were prepared fresh from 10 mM stock solutions in DMSO. […]"}, "[3]": {"test_system": "larval zebrafish", "assay": "Larval zebrafish movement activity during a battery of light and acoustic stimuli", "from_the_text": "Stimuli applied over time are indicated under the heatmaps. Colors indicate bright LED light of respective colors, black traces represent the waveforms of acoustic stimuli, and gray vertical lines indicate physical tapping as secondary acoustic stimuli.\nResponse is […] proportional to classification accuracy; 0-20% indicates no ability and 100% indicates perfect classification. […] The solid line denotes the median and the shading denotes a 95th percentile confidence interval calculated by bootstrap. N=8 wells/condition (64 animals/condition)."}, "[4]": {"test_system": "zebrafish", "assay": "Zebrafish developmental toxicity assay", "format": "in vivo", "conditions": "100 μM; 2 and 5 dpf"}, "[5]": {"target": "human 5-HT2A receptors (Homo sapiens, UniProt P28223)", "sequence (P28223 whole entry, canonical isoform)": "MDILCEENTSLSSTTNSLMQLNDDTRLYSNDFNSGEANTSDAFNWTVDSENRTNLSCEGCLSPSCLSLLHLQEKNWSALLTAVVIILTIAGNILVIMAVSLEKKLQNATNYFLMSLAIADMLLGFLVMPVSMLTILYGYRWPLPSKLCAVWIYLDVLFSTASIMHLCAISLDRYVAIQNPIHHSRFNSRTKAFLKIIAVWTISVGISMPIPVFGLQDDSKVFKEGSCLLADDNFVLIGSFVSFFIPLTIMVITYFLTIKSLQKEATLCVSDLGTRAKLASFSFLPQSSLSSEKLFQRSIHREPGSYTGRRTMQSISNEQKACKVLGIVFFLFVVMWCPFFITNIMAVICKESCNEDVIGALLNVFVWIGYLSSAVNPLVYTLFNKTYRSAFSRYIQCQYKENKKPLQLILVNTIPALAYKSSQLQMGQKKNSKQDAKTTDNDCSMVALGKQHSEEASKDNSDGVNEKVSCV", "assay": "5-HT2A Gq-mediated calcium flux functional assay (human)", "format": "cell-based", "experimental": "(§1) Serotonin and Opioid Receptor Functional Assays. Functional assay screens at 5-HT and opioid receptors were performed in parallel using the same compound dilutions and 384-well format high-throughput assay platforms. Assays assessed activity at all human isoforms of the receptors, except where noted for the mouse 5-HT2A receptor. Receptor constructs in pcDNA vectors were generated from the Presto-Tango GPCR library with minor modifications. All compounds were serially diluted in drug buffer (HBSS, 20 mM HEPES, pH 7.4 supplemented with 0.1% bovine serum albumin and 0.01% ascorbic acid) and dispensed into 384-well assay plates using a FLIPR^TETRA (Molecular Devices). Every plate included a positive control such as 5-HT (for all 5-HT receptors), DADLE (DOR), salvinorin A (KOR), and DAMGO (MOR). For measurements of 5-HT2A, 5-HT2B, and 5-HT2C Gq-mediated calcium flux function, HEK Flp-In 293 T-Rex stable cell lines (Invitrogen) were loaded with Fluo-4 dye for one hour, stimulated with compounds and read for baseline (0-10 seconds) and peak fold-over-basal fluorescence (5 minutes) at 25° C. on the FLIPR^TETRA. For measurement of 5-HT6 and 5-HT7a functional assays, Gs-mediated cAMP accumulation was detected using the split-luciferase GloSensor assay in HEKT cells measuring luminescence on a Microbeta Trilux (Perkin Elmer) with a 15 min drug incubation at 25° C. […]"}, "[6]": {"target": "mouse 5-HT2A receptors (Mus musculus, UniProt P35363)", "sequence (P35363 whole entry)": "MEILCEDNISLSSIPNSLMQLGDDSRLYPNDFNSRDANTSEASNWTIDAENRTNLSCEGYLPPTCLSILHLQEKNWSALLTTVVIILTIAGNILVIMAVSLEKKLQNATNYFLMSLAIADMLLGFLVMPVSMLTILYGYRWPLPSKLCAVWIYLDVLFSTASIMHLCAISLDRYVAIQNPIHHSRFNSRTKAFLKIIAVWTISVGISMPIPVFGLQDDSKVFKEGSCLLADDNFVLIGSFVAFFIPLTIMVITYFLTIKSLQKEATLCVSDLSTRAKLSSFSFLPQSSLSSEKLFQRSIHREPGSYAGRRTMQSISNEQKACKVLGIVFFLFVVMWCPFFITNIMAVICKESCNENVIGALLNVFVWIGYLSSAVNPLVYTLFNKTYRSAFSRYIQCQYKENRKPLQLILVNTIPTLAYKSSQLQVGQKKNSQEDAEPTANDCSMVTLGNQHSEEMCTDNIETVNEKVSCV", "assay": "5-HT2A Gq-mediated calcium flux functional assay (mouse)", "format": "cell-based", "experimental": "as §1"}, "[7]": {"target": "5-HT2B receptors (Homo sapiens, UniProt P41595)", "sequence (P41595 whole entry, canonical isoform)": "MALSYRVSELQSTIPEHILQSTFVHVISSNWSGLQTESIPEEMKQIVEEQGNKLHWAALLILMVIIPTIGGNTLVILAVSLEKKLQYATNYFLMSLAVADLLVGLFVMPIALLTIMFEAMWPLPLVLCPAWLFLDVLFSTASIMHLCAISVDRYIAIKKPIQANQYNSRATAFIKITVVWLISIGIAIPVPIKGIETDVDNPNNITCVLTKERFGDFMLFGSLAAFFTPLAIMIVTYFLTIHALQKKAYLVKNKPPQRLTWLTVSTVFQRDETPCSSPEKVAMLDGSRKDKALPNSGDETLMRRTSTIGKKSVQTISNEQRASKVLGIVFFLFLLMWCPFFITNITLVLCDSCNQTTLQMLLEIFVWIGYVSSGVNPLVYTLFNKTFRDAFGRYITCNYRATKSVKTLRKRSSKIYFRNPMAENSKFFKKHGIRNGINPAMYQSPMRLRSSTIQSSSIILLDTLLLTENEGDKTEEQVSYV", "assay": "5-HT2B Gq-mediated calcium flux functional assay", "format": "cell-based", "experimental": "Serotonin and Opioid Receptor Functional Assays. Functional assay screens at 5-HT and opioid receptors were performed in parallel using the same compound dilutions and 384-well format high-throughput assay platforms. Assays assessed activity at all human isoforms of the receptors, except where noted for the mouse 5-HT2A receptor. Receptor constructs in pcDNA vectors were generated from the Presto-Tango GPCR library with minor modifications. All compounds were serially diluted in drug buffer (HBSS, 20 mM HEPES, pH 7.4 supplemented with 0.1% bovine serum albumin and 0.01% ascorbic acid) and dispensed into 384-well assay plates using a FLIPR^TETRA (Molecular Devices). Every plate included a positive control such as 5-HT (for all 5-HT receptors), DADLE (DOR), salvinorin A (KOR), and DAMGO (MOR). For measurements of 5-HT2A, 5-HT2B, and 5-HT2C Gq-mediated calcium flux function, HEK Flp-In 293 T-Rex stable cell lines (Invitrogen) were loaded with Fluo-4 dye for one hour, stimulated with compounds and read for baseline (0-10 seconds) and peak fold-over-basal fluorescence (5 minutes) at 25° C. on the FLIPR^TETRA. For measurement of 5-HT6 and 5-HT7a functional assays, Gs-mediated cAMP accumulation was detected using the split-luciferase GloSensor assay in HEKT cells measuring luminescence on a Microbeta Trilux (Perkin Elmer) with a 15 min drug incubation at 25° C. For 5-HT1A, 5-HT1B, 5-HT1F, MOR, KOR, and DOR functional assays, Gi/o-mediated cAMP inhibition was measured using the split-luciferase GloSensor assay in HEKT cells, conducted similarly as above, but in combination with either 0.3 μM isoproterenol (5-HT1A, 5-HT1B, 5-HT1F) or 1 μM forskolin (MOR, KOR, and DOR) to stimulate endogenous cAMP accumulation. For measurement of 5-HT1D, 5-HT1E, 5-HT4, and 5-HT5A functional assays, β-arrestin2 recruitment was measured by the Tango assay utilizing HTLA cells expressing TEV fused-β-arrestin2, as described previously with minor modifications. […]"}, "[8]": {"test_system": "opioid receptors (MOR, KOR, DOR)", "assay": "Opioid receptor functional assays (Gi/o-mediated cAMP inhibition)", "format": "cell-based, human", "experimental": "as §1"}, "[9]": {"target": "T2, 5-HT1A (Homo sapiens, UniProt P08908)", "T2 construct": "expressed in transfected cells; host or cells: HEKT cells (GloSensor cAMP assay)", "T2 sequence (P08908 1-422)": "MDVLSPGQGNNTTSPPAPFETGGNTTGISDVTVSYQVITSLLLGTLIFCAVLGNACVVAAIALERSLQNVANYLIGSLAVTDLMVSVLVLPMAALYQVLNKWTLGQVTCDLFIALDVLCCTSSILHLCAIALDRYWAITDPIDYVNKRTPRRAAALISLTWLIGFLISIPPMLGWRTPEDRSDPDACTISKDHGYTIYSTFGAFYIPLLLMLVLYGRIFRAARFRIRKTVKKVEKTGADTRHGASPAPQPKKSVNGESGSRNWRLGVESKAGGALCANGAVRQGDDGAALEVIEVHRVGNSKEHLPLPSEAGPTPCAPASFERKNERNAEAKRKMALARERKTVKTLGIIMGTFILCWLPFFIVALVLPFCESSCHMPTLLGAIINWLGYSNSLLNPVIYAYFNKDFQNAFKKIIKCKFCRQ", "assay": "5-HT1A functional assay (Gi/o-mediated cAMP inhibition)", "format": "cell-based", "experimental": "as §1"}, "[10]": {"target": "T3, 5-HT2C (Homo sapiens, UniProt P28335)", "T3 sequence (P28335 33-458)": "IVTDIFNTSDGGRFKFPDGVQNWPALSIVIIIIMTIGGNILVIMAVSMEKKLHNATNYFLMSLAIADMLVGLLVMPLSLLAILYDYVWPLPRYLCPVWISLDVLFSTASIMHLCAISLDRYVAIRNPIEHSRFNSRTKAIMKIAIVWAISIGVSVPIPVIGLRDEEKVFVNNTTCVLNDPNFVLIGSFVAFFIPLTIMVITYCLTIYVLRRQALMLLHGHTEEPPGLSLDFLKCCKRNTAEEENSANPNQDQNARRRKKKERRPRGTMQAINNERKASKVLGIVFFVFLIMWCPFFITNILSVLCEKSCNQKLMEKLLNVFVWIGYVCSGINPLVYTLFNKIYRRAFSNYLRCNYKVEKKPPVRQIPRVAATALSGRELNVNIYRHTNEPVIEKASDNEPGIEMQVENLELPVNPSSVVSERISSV", "assay": "5-HT2C Gq-mediated calcium flux functional assay", "format": "cell-based", "experimental": "as §1"}, "[11]": {"assay": "Solubility in 0.9% saline", "conditions": "saline or isotonic"}, "[12]": {"test_system": "C57BL/6J mice", "assay": "Head-twitch response (HTR) assay", "conditions": "intraperitoneal; fumarate salts; 5-MeO-DMT 10 mg/kg as positive control"}, "[13]": {"test_system": "larval zebrafish", "assay": "Heart rate and arrhythmia in immobilized larval zebrafish"}},
  "note": "Entries after “also recorded” stand apart in the source; their conditions may differ.",
  "data": [
    {"smiles": "COc1ccc2[nH]c3c(c2c1)CCN(C)CC3", "note": "[IBG]", "values": [
      {"measurement": "psychoplastogenic effect on dendritic growth (Sholl analysis)", "setting": "[1]", "result": "performed comparably to ibogaine"},
      {"measurement": "fold less potent than ibogaine at hERG", "setting": "[2]", "result": "approximately 10 fold"},
      {"measurement": "behavioral phenotype at highest concentration versus lethal control", "setting": "[3]; 200 μM", "result": "did not produce this phenotype"},
      {"measurement": "behavioral phenotype with increasing concentration versus vehicle and lethal control (eugenol, 100 μM)", "setting": "[3]; 1 h treatment, concentration-response", "result": "do not produce movement responses in larval zebrafish similar to a lethal concentration of eugenol"},
      {"measurement": "machine learning classification of movement responses", "setting": "[3]; highest concentrations (200 μM)", "result": "more similar to vehicle controls than to ibogaine, noribogaine, or lethal controls"},
      {"measurement": "malformations, mortality, non-viable fish", "setting": "[4]", "result": "significantly fewer non-viable fish than ibogaine or noribogaine treatments"},
      {"measurement": "agonist activity at human 5-HT2A receptors", "setting": "[5]", "result": "potent agonist activity"},
      {"measurement": "agonist activity at mouse 5-HT2A receptors", "setting": "[6]", "result": "potent agonist activity"},
      {"measurement": "activity mode at 5-HT2B receptors", "setting": "[7]", "result": "antagonists"},
      {"measurement": "opioid agonist activity", "setting": "[8]", "result": "weak or no opioid agonist activity"},
      {"measurement": "5-HT1A agonist activity compared to 5-MeO-DMT", "setting": "[9]", "result": "weaker 5-HT1A and 5-HT2C agonist activity"},
      {"measurement": "5-HT2C agonist activity compared to 5-MeO-DMT", "setting": "[10]", "result": "weaker 5-HT1A and 5-HT2C agonist activity"},
      {"measurement": "solubility", "setting": "[11]", "result": "≥ 40", "unit": "mg/mL"},
      {"measurement": "hallucinogenic potential (head-twitch response)", "setting": "[12]", "result": "significantly reduced hallucinogenic potential"},
      {"measurement": "heart rate (bradycardia)", "setting": "[13]", "result": "Neither IBG nor TBG induced these undesirable phenotypes; also recorded: do not induce bradycardia"},
      {"measurement": "likelihood of arrhythmias (ratio of atrium to ventricle BPM)", "setting": "[13]", "result": "Neither IBG nor TBG induced these undesirable phenotypes"}
    ]}
  ]
}
